Data: patent US20090054403A1, “Treatment of Post-Traumatic Stress Disorder” (priority 2007, published 2009)

Target: T1, bovine dopamine-β-hydroxylase (Bos taurus, UniProt P15101)
T1 construct: Bovine DBH from adrenal glands was obtained from Sigma Chemicals; purchased Sigma Chemicals (St Louis, Mo.); host or cells: bovine adrenal glands
T1 sequence (P15101 1-610): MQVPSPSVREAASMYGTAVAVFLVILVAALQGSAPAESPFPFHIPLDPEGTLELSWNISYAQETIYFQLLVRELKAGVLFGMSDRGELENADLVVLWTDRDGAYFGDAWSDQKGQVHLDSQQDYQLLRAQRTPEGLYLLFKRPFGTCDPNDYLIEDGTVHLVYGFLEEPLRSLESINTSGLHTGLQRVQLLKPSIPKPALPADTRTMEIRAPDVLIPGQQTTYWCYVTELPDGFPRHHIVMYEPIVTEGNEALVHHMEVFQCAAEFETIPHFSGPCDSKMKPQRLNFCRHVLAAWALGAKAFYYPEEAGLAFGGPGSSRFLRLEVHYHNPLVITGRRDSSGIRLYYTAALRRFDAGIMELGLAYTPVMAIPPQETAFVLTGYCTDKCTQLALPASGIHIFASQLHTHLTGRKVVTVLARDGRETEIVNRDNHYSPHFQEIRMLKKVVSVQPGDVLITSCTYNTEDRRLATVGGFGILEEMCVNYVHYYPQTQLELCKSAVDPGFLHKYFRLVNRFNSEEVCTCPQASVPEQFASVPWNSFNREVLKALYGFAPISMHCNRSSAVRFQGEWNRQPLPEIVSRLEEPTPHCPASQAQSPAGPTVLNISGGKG
Assay: Bovine DBH activity, conversion of tyramine to octopamine (HPLC)
Assay type: biochemical
Settings: for IC50: 0.1 mM tyramine, 4 mM ascorbate, pH 5.2
Description: Bovine and human dopamine-β-hydroxylase activity was assayed by measuring the conversion of tyramine to octopamine. Bovine adrenal dopamine-β-hydroxylase was obtained from Sigma Chemicals (St Louis, Mo., USA) whereas human dopamine-β-hydroxylase was purified from the culture medium of the neuroblastoma cell line SK-N-SH. The assay was performed at pH 5.2 and 32° C. in a medium containing 0.125 M NaAc, 10 mM fumarate, 0.5-2 μM CuSO4, 0.1 mg.ml^−1 catalase, 0.1 mM tyramine and 4 mM ascorbate. In a typical assay, 0.5-1 milliunits of enzyme were added to the reaction mixture and, subsequently, a substrate mixture containing catalase, tyramine and ascorbate was added to initiate the reaction (final volume of 200 μl). Samples were incubated with or without the appropriate concentration of nepicastat (S-enantiomer) or (R)-5-Aminomethyl-1-(5,7-difluoro-1,2,3,4-tetrahydronaphth-2-yl)-2,3-dihydro-2-thioxo-1H-imidazole hydrochloride (R-enantiomer) at 37° C. for 30-40 minutes. The reaction was quenched by the stop solution containing 25 mM EDTA and 240 μM 3-hydroxytyramine (internal standard). The samples were analysed for octopamine by reverse phase high pressure liquid chromatography (HPLC) using ultraviolet-detection at […]. The HPLC chromatography run was carried out at the flow rate of 1 ml.min^−1 using a LiChroCART 125-4 RP-18 column and isocratic elution with 10 mM acidic acid, 10 mM 1-heptane sulfonic acid, 12 mM tetrabutyl ammonium phosphate and 10% methanol. The remaining percent activity was calculated based on controls, corrected using internal standards and fitted to a non-linear four-parameter concentration-response curve.
In vitro assay of DBH activity. DBH activity was assayed by measuring the conversion of tyramine to octopamine. Bovine DBH from adrenal glands was obtained from Sigma Chemical Co (St Louis, Mo.). Human secretory DBH was purified from the culture medium of the neuroblastoma cell line SK-N-SH. The assay was performed at pH 5.2 and 32° C. in 0.125 M NaOAc, 10 mM fumarate, 0.5-2 μM CUSO4, 0.1 mg/mL catalase, 0.1 mM tyramine and 4 mM ascorbate. In a typical assay, 0.5-1 milliunits of enzyme were added to the reaction mixture and then a substrate mixture containing catalase, tyramine and ascorbate was added to initiate the reaction (final volume of 200 μL). Samples were incubated with or without the appropriate concentration of the inhibitor at 37° C. for 30-40 min. The reaction was quenched by the stop solution containing 25 mM EDTA and 240 μM 3-hydroxytyramine (internal standard). The samples were analysed for octopamine by reverse phase HPLC using UV detection at […]. The remaining percent activity was calculated based on controls (without inhibitor), corrected using internal standards and fitted to a non-linear 4-parameter concentration-response curve to obtain IC50 values.
Bovine DBH from adrenal glands was obtained from Sigma Chemicals (St. Louis, Mo.). Human secretory DBH was purified from the culture medium of the neuroblastoma cell line SK-N-SH and was used to obtain the inhibition data. A lentil lectin-sepharose column containing 25 ml gel was prepared and equilibrated with 50 mM KH2PO4, pH 6.5, 0.5 M NaCl. The column was eluted with 35 ml of 10% methyl α, D-mannopyranoside in 50 mM KH2PO4, pH 6.5, 0.5 M NaCl at 0.5 ml/min. Fraction containing most enzymatic activities were pooled and concentrated with an Amicon stirred cell using a YM30 membrane. […]

Row | SMILES | IC50 | potency relative to SKF 102698 | potency relative to the R enantiomer
1 | Cl.NCc1c[nH]c(=S)n1[C@@H]1CCc2c(F)cc(F)cc2C1 [R-enantiomer, (R)-5-Aminomethyl-1-(5,7-difluoro-1,2,3,4-tetrahydronaphth-2-yl)-2,3-dihydro-2-thioxo-1H-imidazole hydrochloride] | 0.0251 ± 0.0006 µM |  | 
2 | Fc1cc(F)cc(Cn2cc[nH]c2=S)c1 [SKF 102698, reference compound] | 0.067 ± 0.0042 µM |  | 
3 | Cl.NCc1c[nH]c(=S)n1[C@H]1CCc2c(F)cc(F)cc2C1 [nepicastat, (S)-5-Aminomethyl-1-(5,7-difluoro-1,2,3,4-tetrahydronaphth-2-yl)-2,3-dihydro-2-thioxo-1H-imidazole hydrochloride] | 0.0085 ± 0.0008 µM | 8 fold | 3 fold
